Results reported in patent publication EP4707277A1, “NOVEL HETEROCYCLIC AMINE DERIVATIVES AND PHARMACEUTICAL COMPOSITION COMPRISING SAME” (Daewoong Pharmaceutical Co., Ltd., priority 2023, dated 2024).
Where two headings read alike, the source gives them in different places.

Key:
[1] = target: T1, ITK (Homo sapiens, UniProt Q08881); experiment: Inhibitory activity against ITK, ADP-Glo Kinase system (Promega); type: biochemical
T1 construct: purchased Signalchem I13-11G-10
T1 sequence (Q08881 1-620): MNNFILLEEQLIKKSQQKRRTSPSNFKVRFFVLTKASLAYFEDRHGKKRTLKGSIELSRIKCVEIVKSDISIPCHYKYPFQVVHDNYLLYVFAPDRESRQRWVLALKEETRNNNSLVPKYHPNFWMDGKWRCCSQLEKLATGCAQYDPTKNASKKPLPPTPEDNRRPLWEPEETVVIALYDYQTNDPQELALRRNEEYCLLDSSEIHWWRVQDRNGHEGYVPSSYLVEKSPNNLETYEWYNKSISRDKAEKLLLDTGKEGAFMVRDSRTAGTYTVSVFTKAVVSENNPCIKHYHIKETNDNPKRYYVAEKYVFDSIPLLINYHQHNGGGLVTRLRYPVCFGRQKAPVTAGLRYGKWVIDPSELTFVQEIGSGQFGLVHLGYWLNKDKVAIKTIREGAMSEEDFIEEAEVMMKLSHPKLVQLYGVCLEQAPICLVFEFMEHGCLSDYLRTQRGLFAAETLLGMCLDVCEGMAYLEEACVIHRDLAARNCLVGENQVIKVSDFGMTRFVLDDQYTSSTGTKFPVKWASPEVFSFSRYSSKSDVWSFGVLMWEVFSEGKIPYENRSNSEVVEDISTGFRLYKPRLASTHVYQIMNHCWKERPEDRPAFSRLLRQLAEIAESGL
In short: (§1)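 IC50 values were fitted from kinase reactions run for 1 h at 30°C with either 1 mM ATP or ATP at Km (10 µM for BTK, 25 µM for ITK). Reactions used 0.2 µg/µl poly(Glu4,Tyr1), recombinant human enzyme (BTK 10 ng, ITK 4 ng per reaction) in Tris pH 7.5 Mn/Mg buffer with 1% DMSO. ADP formed was read by ADP-Glo luminescence.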

[2] = target: T2, BTK (Homo sapiens, UniProt Q06187); experiment: Inhibitory activity against BTK, ADP-Glo Kinase system (Promega); type: biochemical
T2 construct: purchased Signalchem B10-10H
T2 sequence (Q06187 whole entry): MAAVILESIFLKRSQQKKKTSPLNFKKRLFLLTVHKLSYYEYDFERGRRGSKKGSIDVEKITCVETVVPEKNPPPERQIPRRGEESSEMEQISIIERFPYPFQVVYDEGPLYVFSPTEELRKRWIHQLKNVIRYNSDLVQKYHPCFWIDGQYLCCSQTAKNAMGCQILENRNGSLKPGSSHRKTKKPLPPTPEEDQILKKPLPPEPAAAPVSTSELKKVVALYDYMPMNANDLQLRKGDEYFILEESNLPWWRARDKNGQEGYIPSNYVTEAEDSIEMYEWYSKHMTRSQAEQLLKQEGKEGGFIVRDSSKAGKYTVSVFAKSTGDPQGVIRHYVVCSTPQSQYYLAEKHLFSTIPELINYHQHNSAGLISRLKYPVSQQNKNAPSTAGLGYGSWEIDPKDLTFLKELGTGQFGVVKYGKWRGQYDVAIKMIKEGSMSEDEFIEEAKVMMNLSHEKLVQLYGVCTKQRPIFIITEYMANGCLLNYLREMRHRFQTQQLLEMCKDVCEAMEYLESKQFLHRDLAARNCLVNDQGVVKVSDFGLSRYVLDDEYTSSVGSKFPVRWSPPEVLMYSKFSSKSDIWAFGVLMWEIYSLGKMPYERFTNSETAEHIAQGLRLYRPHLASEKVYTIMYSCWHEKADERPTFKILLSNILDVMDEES
In short: as §1

[3] = 1mM ATP, read-out: ITK IC50(nM) 1mM ATP
[4] = 1mM ATP, read-out: BTK IC50(nM) 1mM ATP
[5] = Km ATP (ITK: 25uM), read-out: ITK IC50(nM) Km ATP
[6] = Km ATP (BTK: 10 uM), read-out: BTK IC50(nM) Km ATP

SMILES: C=CC(=O)N1CC[C@H](COc2nc(Nc3ncc(C)s3)cc3c2ccn3CC(C)C)C1 [Example 216, (S)-1-(3-(((1-isobutyl-6-((5-methylthiazol-2-yl)amino)-1H-pyrrolo[3,2-c]pyridin-4-yl)oxy)methyl)pyrrolidin-1-yl)prop-2-en-1-one]
- IC50 [1, 3]: 100 to 500 nM
- IC50 [2, 4]: 20 to 100 nM

SMILES: C=CC(=O)N1CC[C@H](Oc2nc(Nc3ncc(C)s3)cc3c2ccn3CC)C1 [Example 125, (S)-1-(3-((1-ethyl-6-((5-methylthiazol-2-yl)amino)-1H-pyrrolo[3,2-c]pyridin-4-yl)oxy)pyrrolidin-1-yl)prop-2-en-1-one]
- IC50 [1, 5]: ≤ 20 nM
- IC50 [2, 6]: ≤ 20 nM

SMILES: C=CC(=O)N1C[C@H](F)[C@H](Oc2nc(Nc3ncc(C)s3)cc3c2ccn3CC(F)(F)F)C1 [Example 211, 1-((3S,4R)-3-fluoro-4-((6-((5-methylthiazol-2-yl)amino)-1-(2,2,2-trifluoroethyl)-1H-pyrrolo[3,2-c]pyridin-4-yl)oxy)pyrrolidin-1-yl)prop-2-en-1-one]
- IC50 [1, 3]: ≤ 20 nM
- IC50 [2, 4]: ≤ 20 nM

SMILES: C=CC(=O)N1CCC[C@H](Oc2nc(Nc3ncc(C)s3)cc3c2ccn3CC(C)CC)C1 (stereo partly drawn) [Example 172, 1-((3S)-3-((1-(2-methylbutyl)-6-((5-methylthiazol-2-yl)amino)-1H-pyrrolo[3,2-c]pyridin-4-yl)oxy)piperidin-1-yl)prop-2-en-1-one]
- IC50 [1, 3]: 20 to 100 nM
- IC50 [2, 4]: ≤ 20 nM

SMILES: C=CC(=O)N1CC[C@@H](Oc2nc(Nc3ncc(C)s3)cc3c2ccn3CC2CC2)C1 [Example 144, (R)-1-(3-((1-(cyclopropylmethyl)-6-((5-methylthiazol-2-yl)amino)-1H-pyrrolo[3,2-c]pyridin-4-yl)oxy)pyrrolidin-1-yl)prop-2-en-1-one]
- IC50 [1, 3]: > 500 nM
- IC50 [2, 4]: > 500 nM

SMILES: Cc1cnc(Nc2cc3c(ccn3CC(C)C)c(O[C@@H]3CN(C(=O)CCl)C[C@@H]3F)n2)s1 [Example 229, 2-chloro-1-((3S,4R)-3-fluoro-4-((1-isobutyl-6-((5-methylthiazol-2-yl)amino)-1H-pyrrolo[3,2-c]pyridin-4-yl)oxy)pyrrolidin-1-yl)ethan-1-one]
- IC50 [1, 3]: ≤ 20 nM
- IC50 [2, 4]: 20 to 100 nM

SMILES: C=CC(=O)N1C[C@H](F)[C@H](Oc2nc(Nc3ncc(C)s3)cc3c2ccn3CC(C)(C)O)C1 [Example 141, 1-((3S,4R)-3-fluoro-4-((1-(2-hydroxy-2-methylpropyl)-6-((5-methylthiazol-2-yl)amino)-1H-pyrrolo[3,2-c]pyridin-4-yl)oxy)pyrrolidin-1-yl)prop-2-en-1-one]
- IC50 [1, 3]: ≤ 20 nM
- IC50 [2, 4]: ≤ 20 nM

SMILES: C=CC(=O)N1CCC[C@H](Oc2nc(Nc3ncc(C)s3)cc3c2ccn3CC(C)C)C1 [Example 150, (S)-1-(3-((1-isobutyl-6-((5-methylthiazol-2-yl)amino)-1H-pyrrolo[3,2-c]pyridin-4-yl)oxy)piperidin-1-yl)prop-2-en-1-one]
- IC50 [1, 3]: 20 to 100 nM
- IC50 [2, 4]: ≤ 20 nM

SMILES: C=CC(=O)N1C[C@@H](Oc2nc(Nc3ncc(C)s3)cc3c2ccn3CCC)C[C@@H]1C [Example 187, 1-((2S,4S)-2-methyl-4-((6-((5-methylthiazol-2-yl)amino)-1-propyl-1H-pyrrolo[3,2-c]pyridin-4-yl)oxy)pyrrolidin-1-yl)prop-2-en-1-one]
- IC50 [1, 3]: ≤ 20 nM
- IC50 [2, 4]: ≤ 20 nM

SMILES: C=CC(=O)N1CC[C@H](Oc2nc(Nc3ncc(C)s3)cc3c2ccn3CC2CCCC2)C1 [Example 128, (S)-1-(3-((1-(cyclopentylmethyl)-6-((5-methylthiazol-2-yl)amino)-1H-pyrrolo[3,2-c]pyridin-4-yl)oxy)pyrrolidin-1-yl)prop-2-en-1-one]
- IC50 [1, 3]: ≤ 20 nM
- IC50 [2, 4]: ≤ 20 nM

SMILES: C=CC(=O)N1CC=C(c2nc(Nc3nnc(C)s3)cc3c2ccn3C(C)C)CC1 [Example 41, 1-(4-(1-isopropyl-6-((5-methyl-1,3,4-thiadiazol-2-yl)amino)-1H-pyrrolo[3,2-c]pyridin-4-yl)-3,6-dihydropyridin-1(2H)-yl)prop-2-en-1-one]
- IC50 [1, 5]: > 500 nM
- IC50 [2, 6]: 20 to 100 nM

SMILES: C=CC(=O)N1CC=C(c2nc(Nc3ncc(C)s3)cc3c2ccn3C)C1 [Example 3, 1-(3-(1-methyl-6-((5-methylthiazol-2-yl)amino)-1H-pyrrolo[3,2-c]pyridin-4-yl)-2,5-dihydro-1H-pyrrol-1-yl)prop-2-en-1-one]
- IC50 [1, 5]: 100 to 500 nM
- IC50 [2, 6]: 100 to 500 nM

SMILES: C=CC(=O)N1CC(C)(Oc2nc(Nc3ncc(C)s3)cc3c2ccn3CC(C)C)C1 [Example 119, 1-(3-((1-isobutyl-6-((5-methylthiazol-2-yl)amino)-1H-pyrrolo[3,2-c]pyridin-4-yl)oxy)-3-methylazetidin-1-yl)prop-2-en-1-one]
- IC50 [1, 5]: ≤ 20 nM
- IC50 [2, 6]: ≤ 20 nM

SMILES: C=CC(=O)N1CC[C@H](Oc2nc(Nc3ncc(C)s3)cc3c2ccn3C(C)C)C1 [Example 79, (S)-1-(3-((1-isopropyl-6-((5-methylthiazol-2-yl)amino)-1H-pyrrolo[3,2-c]pyridin-4-yl)oxy)pyrrolidin-1-yl)prop-2-en-1-one]
- IC50 [1, 3]: ≤ 20 nM
- IC50 [1, 5]: ≤ 20 nM
- IC50 [2, 4]: ≤ 20 nM
- IC50 [2, 6]: ≤ 20 nM

SMILES: C=CC(=O)N1CCCC1COc1nc(Nc2ncc(C)s2)cc2c1ccn2C1CCCC1 (stereo not drawn) [Example 217, 1-(2-(((1-cyclopentyl-6-((5-methylthiazol-2-yl)amino)-1H-pyrrolo[3,2-c]pyridin-4-yl)oxy)methyl)pyrrolidin-1-yl)prop-2-en-1-one]
- IC50 [1, 3]: 20 to 100 nM
- IC50 [2, 4]: ≤ 20 nM

SMILES: C=CC(=O)N1CCC=C(c2nc(Nc3ncc(C)s3)cc3c2ccn3C(C)(C)C#N)C1 [Example 23, 2-(4-(1-acryloyl-1,2,5,6-tetrahydropyridin-3-yl)-6-((5-methylthiazol-2-yl)amino)-1H-pyrrolo[3,2-c]pyridin-1-yl)-2-methylpropanenitrile]
- IC50 [1, 5]: ≤ 20 nM
- IC50 [2, 6]: 20 to 100 nM

SMILES: C=CC(=O)Nc1cc(-c2nc(Nc3ncc(C)s3)cc3c2ccn3C)ccc1F [Example 54, N-(2-fluoro-5-(1-methyl-6-((5-methylthiazol-2-yl)amino)-1H-pyrrolo[3,2-c]pyridin-4-yl)phenyl)acrylamide]
- IC50 [1, 5]: 20 to 100 nM
- IC50 [2, 6]: ≤ 20 nM

SMILES: C=CC(=O)N1CCC[C@H](Oc2nc(Nc3ncc(C)s3)cc3c2ccn3CC2CC2)C1 [Example 149, (S)-1-(3-((1-(cyclopropylmethyl)-6-((5-methylthiazol-2-yl)amino)-1H-pyrrolo[3,2-c]pyridin-4-yl)oxy)piperidin-1-yl)prop-2-en-1-one]
- IC50 [1, 3]: ≤ 20 nM
- IC50 [2, 4]: ≤ 20 nM

SMILES: C=CC(=O)Nc1ccc(F)c(-c2nc(Nc3ncc(C)s3)cc3c2ccn3C2CCCC2)c1 [Example 70, N-(3-(1-cyclopentyl-6-((5-methylthiazol-2-yl)amino)-1H-pyrrolo[3,2-c]pyridin-4-yl)-4-fluorophenyl)acrylamide]
- IC50 [1, 3]: 20 to 100 nM
- IC50 [2, 4]: ≤ 20 nM

SMILES: C=CC(=O)N1CC(Oc2nc(Nc3ncc(C)s3)cc3c2ccn3CC2CC2)C1 [Example 145, 1-(3-((1-(cyclopropylmethyl)-6-((5-methylthiazol-2-yl)amino)-1H-pyrrolo[3,2-c]pyridin-4-yl)oxy)azetidin-1-yl)prop-2-en-1-one]
- IC50 [1, 3]: ≤ 20 nM
- IC50 [2, 4]: ≤ 20 nM

SMILES: C=CC(=O)N1CC=C(c2nc(Nc3ncc(C)s3)cc3c2ccn3C2CC2(F)F)CC1 (stereo not drawn) [Example 20, 1-(4-(1-(2,2-difluorocyclopropyl)-6-((5-methylthiazol-2-yl)amino)-1H-pyrrolo[3,2-c]pyridin-4-yl)-3,6-dihydropyridin-1(2H)-yl)prop-2-en-1-one]
- IC50 [1, 5]: ≤ 20 nM
- IC50 [2, 6]: ≤ 20 nM

SMILES: C=CC(=O)N1C2C=C(c3nc(Nc4ncc(C)s4)cc4c3ccn4C)CC1CC2 (stereo not drawn) [Example 28, 1-(3-(1-methyl-6-((5-methylthiazol-2-yl)amino)-1H-pyrrolo[3,2-c]pyridin-4-yl)-8-azabicyclo[3.2.1]oct-2-en-8-yl)prop-2-en-1-one]
- IC50 [1, 3]: ≤ 20 nM
- IC50 [1, 5]: ≤ 20 nM
- IC50 [2, 4]: ≤ 20 nM
- IC50 [2, 6]: ≤ 20 nM

SMILES: C=CC(=O)N1CC[C@H](Oc2nc(Nc3cc(C(F)(F)F)ncn3)cc3c2ccn3C(C)C)C1 [Example 95, (S)-1-(3-((1-isopropyl-6-((6-(trifluoromethyl)pyrimidin-4-yl)amino)-1H-pyrrolo[3,2-c]pyridin-4-yl)oxy)pyrrolidin-1-yl)prop-2-en-1-one]
- IC50 [1, 3]: 100 to 500 nM
- IC50 [2, 4]: ≤ 20 nM

SMILES: C=CC(=O)N1CC=C(c2nc(Nc3ncc(C)s3)cc3c2ccn3CC(C)C)CC1 [Example 6, 1-(4-(1-isobutyl-6-((5-methylthiazol-2-yl)amino)-1H-pyrrolo[3,2-c]pyridin-4-yl)-3,6-dihydropyridin-1(2H)-yl)prop-2-en-1-one]
- IC50 [1, 3]: 100 to 500 nM
- IC50 [1, 5]: ≤ 20 nM
- IC50 [2, 4]: 20 to 100 nM
- IC50 [2, 6]: ≤ 20 nM
